Consider 13 compounds from patent publication US5885786A, “Methods for screening of substances for inhibition of multidrug resistance” (priority 1996, dated 1999).

As a reminder, the IC50 is the concentration that gives 50% inhibition.

The conditions of data set [1]: cited from earlier work; for absorption (in words): oral or unspecified.
Data set [2] relates to glycosylation of ceramide in MCF-7-AdrR cells (UDP-glucose:ceramide glucosyltransferase). Briefly: Glycosylation of C6-ceramide and natural glycosphingolipid synthesis, [3H]galactose labeling. Type of data set: cell-based. As to the method:
FIG. 14A and FIG. 14B. Effect of Tamoxifen on Ceramide Synthesis and Glycosylation in MCF-7-AdrR Cells. FIG. 14: A Influence of tamoxifen on ceramide synthesis. The experiment was conducted as described in the legend to FIG. 13. Aliquots of the total lipid extract were based-hydrolyzed as described in Example I, separated by TLC using solvent system IV, and the resolved [^3 H]ceramide was quantitated by liquid scintillation spectrometry. Results are the mean±SEM of duplicate determinations from two separate experiments. FIG. 14B: Effect of tamoxifen on glycosylation of C6 -ceramide. Cells, in 100×20 mm culture dishes, were preincubated without or with 5.0 μM tamoxifen for 30 min, followed by incubation without or with 5.0 μM C6 -ceramide:BSA (prepared at a 1:1 molar ratio) for an additional 30 min. Cells were labeled thereafter with 1.0 μCi/ml [^3 H]galactose for 24 h. [3H]Galactose uptake was determined and found to be similar in all experimental points (1.0×10^6 cpm/dish). The total extracted lipid was applied to TLC separation and [^3 H]glycosphingolipids were analyzed as described in the legend to FIG. 10. The autoradiography of a representative chromatogram is shown.
In order to explore this notion, a short-chain ceramide analog with a 6-carbon N-acyl group (C6 -ceramide), was utilized as a substrate.

The conditions of data set [3]: cited from earlier work.
Data set [4] has as its system lipid-1 and -2 formation in MCF-7-AdrR cells. Nature of the data set: Effect of inhibitors of sphingolipid biosynthesis on lipid-1 and -2 formation. The class given is cell-based. As to the method: FIG. 5A, FIG. 5B, and FIG. 5C. Effect of inhibitors of sphingolipid biosynthesis on lipid-1 and -2 formation in MCF-7-AdrR cells. Cells, grown to near-confluency in 100×20 mm culture dishes, were radiolabeled with [^3 H]palmitic acid (FIG. 5A), or [^3 H]serine (FIG. 5B, FIG. 5C), in the presence or absence of 10 mM L-cycloserine (FIG. 5A), 50 μM FB1 (FIG. 5B), or 20 μM PPMP (FIG. 5C), for 24 h in RPMI-1640 medium containing 0.1% BSA. Extracted lipids were analyzed by TLC using solvent system II (FIG. 5A, FIG. 5B), or solvent system III (FIG. 5C) as described in Example I. Lac-cer, lactosylceramide.
The effects of various inhibitors of sphingolipid biosynthesis were investigated, using MCF-7-AdrR cells, labeled with either [^3 H]palmitic acid, or [^3 H]serine. The first enzymatic reaction in sphingoid base biosynthesis, catalyzed by serine:palmitoyltransferase, is the formation of 3-ketosphinganine from serine and palmitoyl-CoA (FIG. 1).

For data set [5] the following is noted: cited from earlier work. This is another data set of the same source.
The subject of a further data set is MCF-7-AdrR cells. Briefly: Cell proliferation (MTS) assay: adriamycin toxicity and chemosensitization. The following applies: for effect on adriamycin toxicity / chemosensitization (in words): 5.0 μM tested drug + adriamycin, 72 h, FIG. 15A, 16B. The source says:
FIG. 15A and FIG. 15B. […] FIG. 15B: Glycosylceramide levels in MDR Cells following drug treatment. […] In order to avoid differences in [^3 H]glycosylceramide values which account for cell death, the same amount of total radioactive lipid from each sample was applied to TLC separation.
FIG. 16A and FIG. 16B. […] FIG. 16A: Effect of PPMP on cellular glycosylceramide levels. […] [^3 H]Glycosylceramide was quantitated as described in the legend to FIG. 9.
Vehicle (acetone, ethanol) was always added to control (minus drug) wells. The cytotoxic activity of a drug was determined using the Promega CellTiter 96™ AQueous MTS cell proliferation assay kit. Each experimental point was performed in six replicates. MTS/PMS solution (20 μl/well) was aliquoted into all wells, and the cells were incubated for 2-3 h, or until an O.D. of 0.9-1.0 was obtained as a highest reading. Thereafter, absorbence at 490 nm was recorded using an ELISA plate reader (Molecular Devices, San Diego, Calif.).

Data set [6] concerns glycosylceramide synthesis in MCF-7-AdrR cells. Nature of the data set: Effect of PPMP on cellular glycosylceramide levels, [3H]serine 24 h. Type of data set: cell-based. Particulars: FIG. 16A. From the text:
FIG. 16A and FIG. 16B. […] FIG. 16A: Effect of PPMP on cellular glycosylceramide levels.

Data set [7] deals with P388-adriamycin resistant cells. The following applies: literature; cited from earlier work.
For a further data set, the system named is acid sphingomyelinase. The following applies: literature; cited from earlier work.
For data set [8] the following is noted: in vivo; cited from earlier work.
In data set [9] the test system is OVCAR-3 (MDR ovarian carcinoma). Particulars: clinically relevant concentrations (Rogan et al., 1984); cited from earlier work.
The subject of the next data set is P-glycoprotein. The following applies: literature; cited from earlier work.
Data set [10] deals with glycosylceramide formation in MCF-7-AdrR cells. Nature of the data set: Inhibition of [3H]glycosylceramide formation in MCF-7-AdrR cells (TLC, liquid scintillation). Type of data set: cell-based. The following applies: 5.0 μM drug, 24 h, MCF-7-AdrR, FIG. 11B; read-out: inhibition of glycosylceramide formation (cpm tritium). The procedure: FIG. 9. […] Values represent the mean of determinations from three separate experiments, and are calculated as the percent glycosylceramide in the total lipid tritium extract.
FIG. 11A and FIG. 11B. […] FIG. 11: A Autoradiography. […] For autoradiography equal aliquots by volume of total lipid extract were applied to TLC plates. […] [^3 H]Glycosylceramide, visualized in panel A, was quantitated as described in the legend to FIG. 9. Each value represents mean±SEM of determinations from three separate experiments.
FIG. 12. […] [^3 H]Glycosylceramide was quantitated as described in the legend to FIG. 9. Results represents the mean±SEM of determinations from three separate experiments.
MCF-7 cells, grown in medium containing 10% FBS, were switched to media containing 5% FBS. Cell lipids were radiolabeled by adding [^3 H]serine (2.0 μCi/ml), [^3 H]palmitic acid (1.0 μCi/ml), or [^3 H]galactose (1.0 μCi/ml) to the culture medium for the indicated times. Other radiolabels can be substituted. Cells were then rinsed twice with PBS, pH 7.4, and 2 ml of ice-cold methanol containing 2% acetic acid was added. The cells were scraped free, transferred to glass test tubes (13×100 mm), and lipids were extracted by the addition of chloroform (2 ml) followed by water (2 ml). The resulting organic lower phase was withdrawn and evaporated under a stream of nitrogen. Lipids were resuspended in 100 μL of chloroform/methanol (1:1, v/v), and aliquots were applied to TLC plates.
Lipid analysis was carried out by TLC using solvent system I: chloroform/methanol/ammonium hydroxide (40:10:1, v/v) for glycosylceramide separation, solvent system II: chloroform/methanol/water (60:40:8, v/v) for sphingoglycolipid separation, or solvent system III: chloroform/methanol/acetic acid/water (50:30:7:3, v/v) for sphingomyelin separation. For determination of ceramides, an aliquot of the chloroform-soluble lipids was base-hydrolyzed in 0.1N KOH in methanol for 1 h at 37° C., lipids were re-extracted, and separated by TLC using solvent system IV: hexane/diethyl ether/formic acid (60:40:1, v/v).
Radiochromatograms were sprayed with EN^3 HANCE, and exposed for 3-7 days for autofluorgraphy. TLC areas, aligned with bands on the autoradiographs or with iodine-stained commercial lipid standards, were scraped from the plate. Water (0.5 ml) was added to the plate scrapings followed by 4.5 ml of EcoLume counting fluid, and the samples were quantitated by liquid scintillation spectrometry.

The mark [11] stands for this setting: 5.0 μM C6-ceramide, FIG. 14B, […].
Setting [12] is: 10 mM L-cycloserine, [3H]palmitic acid, FIG. 5A.

Entries after “also recorded” stand apart in the source; their conditions may differ. *1 amine or outer side, *2 acyl side, *3 side chain or, on linkers, in order; H or OH if unused. Where a SMILES comes first, the peptide text is derived from it. Bridges are numbered along the chain shown (N, C = ends). Roman numbers before positions name the chains, in order. [ ]: non-standard residue; d: D form. Actinocin(9to1) = Cc1c2oc3c(C)ccc(C(=O)[*:1])c3nc-2c(C(=O)[*:2])c(N)c1=O; NMeV = CN[C@H](C(=O)O)C(C)C; Sar = CNCC(=O)O

In the case of `Cc1c2oc3c(C)ccc(C(=O)N[C@@H]4C(=O)N[C@H](C(C)C)C(=O)N5CCC[C@H]5C(=O)N(C)CC(=O)N(C)[C@@H](C(C)C)C(=O)O[C@@H]4C)c3nc-2c(C(=O)N[C@@H]2C(=O)N[C@H](C(C)C)C(=O)N3CCC[C@H]3C(=O)N(C)CC(=O)N(C)[C@@H](C(C)C)C(=O)O[C@@H]2C)c(N)c1=O` [Actinomycin D] (I: T[dV]P[Sar][NMeV] / II: T[dV]P[Sar][NMeV]; ester I:1-I:C, II:1-II:C; linker I:N-II:N via Actinocin(9to1)), in [1] (in vivo, iv), the “excreted into the urine” value was 10% and the half-life result was “about 36 hr”. In [1] (in vivo), the “blood-brain barrier passage (in words)” value is listed as “does not pass the blood-brain barrier” and the “dose excreted intact into the bile (in words)” value is reported as “Half of the dose”.
Consider `CCCCCCCCCCCCC/C=C/[C@@H](O)[C@H](CO)NC(=O)CCCCC` [C6 -ceramide], for which the “natural glycosylceramide level (in words)” value in [2] (5.0 μM C6-ceramide, FIG. 14B) is “not altered”. Also, in data set [2] (setting [11]), the “reduction of ganglioside synthesis” value was found to be 35% and the “reduction of natural lactosylceramide synthesis” value was 33%. Moreover, the “formation of C6-glycosylceramide (in words)” value in data set [2] (cells incubated with C6-ceramide) is “clearly visible”.
On to `O=NN(CCCl)C(=O)NCCCl` [Carmustine, 1,3bis (2-chloroethyl)-1-nitrosourea], for which the “solubility in water (in words)” value in data set [3] was “poorly soluble in water”.
For the compound `CCCCC(C)C(OC(=O)CC(CC(=O)O)C(=O)O)C(CC(C)CC(O)CCCCC(O)CC(O)C(C)N)OC(=O)CC(CC(=O)O)C(=O)O` (stereo not shown) [FB1], the “level of both lipid-1 and -2 (in words)” value in data set [4] (50 μM FB1, [3H]serine, FIG. 5B) was “profound reduction”.
On to `N[C@H]1CONC1=O` [L-cycloserine], for which, in [4] (setting [12]), the “lipid-1 formation (in words)” value is on record as “almost complete disappearance” and the “lipid-2 formation (in words)” value was “major inhibition”.
Consider `O=NN(CCCl)C(=O)NC1CCCCC1` [Lomustine, 1-(2-chloro-ethyl)-3-cyclohexyl-1 nitrosourea], for which the “ionization (in words)” value in data set [3] (physiological pH) is reported as “relatively unionized”. Also, the “solubility in water (in words)” value in data set [3] is reported as “relatively insoluble”. For the same compound, the “tissue levels vs plasma levels (in words)” value in data set [1] (15 minutes after intravenous administration) is reported as “comparable to plasma levels”. Besides, the “excretion of radioactivity as degradation products (in words)” value in data set [1] (within 24 hours, oral 30 mg/m^2 to 100 mg/m^2) is “about half”.
For the compound `CO[C@@]12[C@H](COC(N)=O)C3=C(C(=O)C(C)=C(N)C3=O)N1C[C@@H]1N[C@@H]12` [Mitomycin], in data set [5] (human, in vivo, iv), the “fraction of dose excreted unchanged in the urine” value is on record as “Approximately 10%”. The “clearance from the serum (in words)” value in data set [5] (intravenous) is given as “rapidly cleared”.
`CCCCCCCCCCCCCCCC(=O)NC(CN1CCOCC1)C(O)c1ccccc1` (stereo not shown) [PPMP]: in data set [4] (20 μM PPMP, FIG. 5C), the “ceramide levels (in words)” value is reported as “elevation in ceramide levels”; the “lactosylceramide and gangliosides (in words)” value is recorded as “concomitant reduction”. The “formation of lipid-1 and -2 (in words)” value in data set [4] (20 μM PPMP, [3H]serine, FIG. 5C) is on record as “blocked completely”. Further, the “effect on adriamycin toxicity / chemosensitization (in words)” value in the data set on MCF-7-AdrR cells was “clear sensitization; also recorded: effectively decreased cell survival”. Moreover, the “effect of the substance alone on cell survival (in words)” value with MCF-7-AdrR cells (MCF-7-AdrR, alone) is “no influence itself on cell viability; also recorded: no effect”. Moreover, the inhibition at 5 µM in data set [6] (24 h, 5.0 μM PPMP, read-out: maximal reduction in cellular glycosylceramide levels) turned out to be 86%. For the same compound, the 50% inhibitory concentration (IC50) in [6] (PPMP, [3H]serine 24 h, read-out: IC50 for inhibition of glycosylceramide formation) turned out to be 900 nM.
With `COc1ccc(CCN(C)CCCOc2ccc(S(=O)(=O)c3c(C(C)C)cn4ccccc34)cc2)cc1OC` [SR33557], the “reversal of MDR / adriamycin resistance in P388 cells (in words)” value in data set [7] is listed as “reverse MDR”. Moreover, the “inhibition of acid sphingomyelinase (in words)” value in the data set with acid sphingomyelinase is on record as “inhibition of acid sphingomyelinase”.
For the compound `CC[C@]1(O)C[C@H]2CN(CCc3c([nH]c4ccccc34)[C@@](C(=O)OC)(c3cc4c(cc3OC)N(C=O)[C@H]3[C@@](O)(C(=O)OC)[C@H](OC(C)=O)[C@]5(CC)C=CCN6CC[C@]43[C@@H]65)C2)C1` [Vincristine], in [8], the “tolerability / toxicity (in words)” value is on record as “sever neurological toxicity”. In [1] (in vivo), the “distribution in blood cells (in words)” value is reported as “extensively concentrated in platelets” and the “plasma protein binding (in words)” value is recorded as “bind to plasma proteins”. Further, in data set [1], the “absorption (in words)” value is recorded as “Unpredictable absorption”.
Take `N.N.[Cl][Pt][Cl]` [cisplatin]: the “resistance of OVCAR-3 to the drug (in words)” value in data set [9] was “resistant”. Moreover, the “absorption (in words)” value in [1] is “not absorbed orally”.
Regarding `COc1cc(C[C@H]2c3cc(OC)c(OC)cc3CCN2C)c(Oc2cc3c(cc2OC)-c2c(OC)c(OC)cc4c2[C@H](C3)N(C)CC4)cc1OC` [thaliblastine], in [7], the “reversal of MDR / adriamycin resistance in P388 cells (in words)” value is “reverses adriamycin resistance”. Further, the “binding to P-glycoprotein (in words)” value in the data set on P-glycoprotein is given as “binds to P-glycoprotein”.
`CCC(=C(c1ccccc1)c1ccccc1)c1ccccc1` [triphenylbutene]: the inhibition at 5 µM in [10] turned out to be 13%. In addition, the “effect on adriamycin toxicity / chemosensitization (in words)” value in the data set on MCF-7-AdrR cells is recorded as “no effect”.
